From US20040019091A1, “Triazole derivatives and pharmaceutical compositions comprising them” (priority 2000, published 2004) come the findings set out here.

For one data set, the target named is T1, human CCK2 receptor (Homo sapiens, UniProt P32239).
T1 sequence (P32239 1-447): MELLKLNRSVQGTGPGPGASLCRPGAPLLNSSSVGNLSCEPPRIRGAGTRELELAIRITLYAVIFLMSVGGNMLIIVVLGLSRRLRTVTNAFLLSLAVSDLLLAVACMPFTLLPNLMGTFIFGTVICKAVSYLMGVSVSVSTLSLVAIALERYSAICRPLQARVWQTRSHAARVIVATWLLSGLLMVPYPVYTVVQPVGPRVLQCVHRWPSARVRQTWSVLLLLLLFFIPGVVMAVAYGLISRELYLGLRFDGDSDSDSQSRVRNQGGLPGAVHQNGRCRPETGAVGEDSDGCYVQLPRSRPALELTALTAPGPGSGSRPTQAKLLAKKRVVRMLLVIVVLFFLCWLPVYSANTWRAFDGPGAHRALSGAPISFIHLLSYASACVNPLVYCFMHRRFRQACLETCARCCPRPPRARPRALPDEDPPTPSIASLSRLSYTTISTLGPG
Kind of data set: in vitro binding to CCK2 receptor. As to conditions: read-out: IC50 (affinity, human CCK2 receptor). How it is done:
their selectivity for the CCK2 receptor;
(§1) The compounds of formula (I) underwent studies of in vitro binding to CCK1 and CCK2 receptors, using the method described in Europ. J. Pharmacol., 1993, 232, 13-19. […] The agonist activity of the compounds towards CCK1 receptors was evaluated in vitro in 3T3 cells expressing the human CCK1 receptor, by measuring the mobilization of the intracellular calcium ([Ca^++]i), according to a technique derived from that of Lignon M F et al., Eur. J. Pharmacol., 1993, 245, 241-245. The calcium concentration [Ca^++]i is evaluated with Fura-2 by the double excitation wavelength method. The ratio of the fluorescence emitted at two wavelengths gives the concentration of [Ca^++]i, after calibration (Grynkiewiez G. et al., J. Biol. Chem., 1985, 260, 3440-3450).

Data set [1] addresses T2, 3T3 cells expressing the human CCK1 receptor (Homo sapiens, UniProt P32238).
T2 construct: expressed in transfected cells; host or cells: 3T3 cells
T2 sequence (P32238 1-428): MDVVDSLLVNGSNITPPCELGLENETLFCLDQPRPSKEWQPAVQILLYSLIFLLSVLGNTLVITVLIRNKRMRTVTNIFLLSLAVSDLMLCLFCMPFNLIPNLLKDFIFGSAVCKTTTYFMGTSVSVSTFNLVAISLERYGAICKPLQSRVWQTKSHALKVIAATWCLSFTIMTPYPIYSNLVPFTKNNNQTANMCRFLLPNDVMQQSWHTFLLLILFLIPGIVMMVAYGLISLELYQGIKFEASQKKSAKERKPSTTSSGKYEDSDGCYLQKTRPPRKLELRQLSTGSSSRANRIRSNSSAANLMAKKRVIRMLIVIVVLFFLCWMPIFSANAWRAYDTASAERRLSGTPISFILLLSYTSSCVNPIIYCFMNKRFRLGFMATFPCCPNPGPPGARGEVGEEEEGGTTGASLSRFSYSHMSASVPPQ
The experiment in a line: mobilization of intracellular calcium ([Ca++]i), Fura-2. The class given is cell-based. As to conditions: read-out: EC50 [Ca++]i release. How it is done: their CCK1 receptor agonist property, by way of their capacity to induce mobilization of intracellular calcium in vitro in 3T3 cells expressing the human CCK1 receptor;
as §1

A further data set deals with T3, human CCK1 receptor (Homo sapiens, UniProt P32238).
T3 construct: expressed in transfected cells; host or cells: 3T3 cells
T3 sequence (P32238 1-428): T2 sequence (P32238 1-428)
The experiment in a line: in vitro binding to CCK1 receptor ([125I]-CCK displacement). The procedure:
their potentiality for displacing [^125I]-CCK from its binding sites present in rat pancreatic membranes (CCK1 receptor) or 3T3 cells expressing recombinant human CCK1 receptor;
as §1

In the next data set the test system is gastric emptying. Kind of data set: gastric emptying of a charcoal meal in the mouse, oral route. The class given is in vivo, Female Swiss albino CD1 mice. To be noted: p.o., 60 minutes before charcoal meal, read-out: ED50 inhibition of gastric emptying. How it is done:
their agonist effect by the oral route on gastric drainage in the mouse.
An in vivo study of the agonist effect of the compounds on gastric emptying was carried out as follows. Female Swiss albino CD1 mice (20-25 g) are placed on a solid fast for 18 hours. On the day of the experiment, the products are administered orally 60 minutes before the administration of a charcoal meal (0.3 ml per mouse of a suspension in water of 10% charcoal powder, 5% gum arabic and 1% carboxymethylcellulose). The mice are sacrificed 5 minutes later by cervical dislocation, and the gastric emptying is defined as the presence of charcoal in the intestine beyond the pyloric sphincter (Europ. J. Pharmacol., 1993, 232, 13-19).

Regarding `CCNCC.COc1cc(-c2nc(NC(=O)c3cc4c(C)c(C)c(OC)cc4n3CCC(=O)O)nn2CCC2CCCCC2)c(OC)cc1C`, the melting point was 143 °C (dec.).

Turning to `COc1cc(-c2nc(NC(=O)c3cc4c(C)c(C)c(OC)cc4n3CCC(=O)[O-])nn2CCC2CCCCC2)c(OC)cc1C.[K+]` [Example 1, 3-[2-[[[1-(2-cyclohexylethyl)-5-(2,5-dimethoxy-4-methylphenyl)-1H-1,2,4-triazol-3-yl]amino]carbonyl]-6-methoxy-4,5-dimethyl-1H-indol-1-yl]propionic acid, Potassium Salt], the IC50 on human CCK2 receptor came to 234 nM; on human CCK1 receptor (human CCK1 receptor, read-out: IC50 (affinity, human CCK1 receptor)), 0.4 nM. Moreover, the EC50 in data set [1] is approximately 1 nM. Besides, at human CCK1 receptor (human CCK1 versus human CCK2), the “selectivity (affinity CCK1 receptor versus affinity of CCK2 receptor)” value is more than 500 fold.

For the compound `COc1cc(-c2nc(NC(=O)c3cc4c(C)c(C)c(OC)cc4n3CCC(=O)O)nn2CCC2CCCCC2)c(OC)cc1C.NCCO` [Example 3, 3-[2-[[[1-(2-cyclohexylethyl)-5-(2,5-dimethoxy-4-methylphenyl)-1H-1,2,4-triazol-3-yl]amino]carbonyl]-6-methoxy-4,5-dimethyl-1H-indol-1-yl]propionic acid ethanolamine salt], the ED50 in the data set on gastric emptying worked out at 0.027 mg/kg.
